The values that follow come from publication PMC11768629, “Potential Interaction of Pinocembrin with Drug Transporters and Hepatic Drug-Metabolizing Enzymes” (Pharmaceuticals, 2025).

The term IC50 denotes the concentration that inhibits the measured activity by half. A lower IC50 goes with inhibition by little substance. In general, Ki refers to the dissociation constant of the complex between target and ligand, obtained from inhibition or displacement.

Molecules are shown by their SMILES.

For test [1], the target named is T1, hMATE1 (Homo sapiens, UniProt Q96FL8).
T1 construct: host or cells: CHO-K1
T1 sequence (Q96FL8 whole entry): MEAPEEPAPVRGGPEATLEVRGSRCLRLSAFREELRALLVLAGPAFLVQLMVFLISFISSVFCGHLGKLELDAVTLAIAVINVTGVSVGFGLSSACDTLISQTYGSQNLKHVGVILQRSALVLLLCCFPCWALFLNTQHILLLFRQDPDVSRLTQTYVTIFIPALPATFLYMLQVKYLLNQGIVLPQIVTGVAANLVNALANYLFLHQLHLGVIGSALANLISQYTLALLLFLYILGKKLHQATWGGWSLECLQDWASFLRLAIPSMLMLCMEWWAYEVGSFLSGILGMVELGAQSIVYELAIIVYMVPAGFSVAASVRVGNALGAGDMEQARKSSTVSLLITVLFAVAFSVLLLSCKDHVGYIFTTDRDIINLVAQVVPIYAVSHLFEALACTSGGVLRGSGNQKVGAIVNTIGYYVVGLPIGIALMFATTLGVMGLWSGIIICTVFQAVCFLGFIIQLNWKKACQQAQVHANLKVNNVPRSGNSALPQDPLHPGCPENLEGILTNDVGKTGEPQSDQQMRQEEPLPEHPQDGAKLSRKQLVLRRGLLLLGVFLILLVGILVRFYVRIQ
Put plainly: Cis-inhibition assay, 3H-MPP+ uptake in hMATE1-CHO-K1 cells. It is filed as cell-based. The note with it: pinocembrin, pH 8.5. On the procedure: Next, the effects of pinocembrin on the transport function of renal drug transporters, including hOAT1, hOAT3, hOCT1, hOCT2, hMATE1, and hMATE2, were determined.
A cell monolayer comprising hOAT1-MDCK, hOAT3-MDCK, hOCT1-CHO-K1, hOCT2-CHO-K1, hMATE1-CHO-K1, hMATE2-CHO-K1, and mock cells were utilized for the uptake experiments. The cells were washed three times with a buffer containing (in mM) 140 NaCl, 5 KCl, 0.4 MgSO4, 0.5 MgCl2, 1 CaCl2, 0.3 Na2HPO4, 0.4 KH2PO4, 6 D-glucose, and 4 NaHCO3 at pH 7.4 and incubated at 37 °C for 15 min. After incubation, the hOAT1-MDCK and hOAT3-MDCK cells were incubated for 10 min with ^3H-PAH and ^3H-estrone sulfate, a substrate of hOAT1 and hOAT3, respectively. The hOCT1-CHO-K1 and hOCT2-CHO-K1 cells were incubated with ^3H-MPP^+, a substrate of OCT1 and OCT2, for five minutes. The functions of MATE1 and MATE2 were determined by incubating the hMATE1-CHO-K1 and hMATE2-CHO-K1 cells with a buffer containing ^3H-MPP^+, a substrate of MATE1 and MATE2, at pH 8.5 for five minutes. The cells were washed three times with an ice-cold buffer to stop the transport function. The cells were lyzed with 0.4 N NaOH for at least four hours. The samples were collected and transferred to vials containing a liquid scintillation cocktail to measure radioactivity by a β-counter (Packard BioScience, Wellesley, MA, USA). […]

For test [2], the target named is T2, hOAT1 (Homo sapiens, UniProt Q4U2R8).
T2 construct: host or cells: MDCK
T2 sequence (Q4U2R8 1-563): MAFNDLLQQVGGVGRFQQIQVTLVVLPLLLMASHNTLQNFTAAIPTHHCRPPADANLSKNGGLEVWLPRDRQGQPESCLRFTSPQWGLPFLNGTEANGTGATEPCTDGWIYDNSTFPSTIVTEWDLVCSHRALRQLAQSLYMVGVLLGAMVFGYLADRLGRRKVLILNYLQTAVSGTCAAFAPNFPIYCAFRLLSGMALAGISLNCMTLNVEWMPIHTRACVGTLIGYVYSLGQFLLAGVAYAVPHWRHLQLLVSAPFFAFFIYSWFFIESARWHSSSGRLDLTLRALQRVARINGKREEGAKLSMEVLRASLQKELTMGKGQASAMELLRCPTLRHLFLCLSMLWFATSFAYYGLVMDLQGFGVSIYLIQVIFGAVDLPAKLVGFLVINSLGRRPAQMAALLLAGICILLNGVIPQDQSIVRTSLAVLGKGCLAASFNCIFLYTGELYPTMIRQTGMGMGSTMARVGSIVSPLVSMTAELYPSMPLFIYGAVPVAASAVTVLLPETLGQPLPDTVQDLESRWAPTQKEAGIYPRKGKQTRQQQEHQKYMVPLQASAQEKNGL
The test is described as follows: hOAT1-mediated 6-CF uptake in hOAT1-MDCK cells (inhibitory potency and kinetics). The format is cell-based. On the procedure:
To determine the inhibitory potency of pinocembrin on the hOAT1 and hOAT3 function, the IC50 of pinocembrin on the hOAT1- and hOAT3-mediated uptake of 6-carboxyfluorescein (6-CF), a fluorescent substrate of hOAT1 and hOAT3, was determined. […] Next, the inhibitory mechanism of pinocembrin was determined using a kinetic study.
The hOAT1-MDCK and hOAT3-MDCK cell monolayers were incubated at 37 °C with an uptake buffer containing 6-CF (10 µM), a fluorescent substrate of hOAT1 and hOAT3 [12], and pinocembrin (0–50 µM) for 10 min. Uptake was terminated by removing the uptake solution and washing four times with a cold buffer. The cell monolayers were lysed with 0.4 N NaOH for 30 min. The samples were transferred to 96-black well plates to measure the fluorescence intensity using a fluorescent plate reader (EnVision XCite 2105 Multimode Plate Reader, Packard BioScience, Wellesley, MA, USA) at excitation and emission wavelengths of 490 and 510, respectively. The IC50 of pinocembrin on hOAT1- and hOAT3-mediated 6-CF uptake was calculated in GraphPad Prism using sigmoidal concentration–response analysis using the equation Y = 100/(IC50/X)^HillSlope (X is the concentration, while Y is the normalized response). In addition, the estimated inhibitory constant (Ki) was calculated using the Cheng–Prusoff equation.
The hOAT1-MDCK and hOAT3-MDCK cell monolayers were incubated with 6-CF at increasing concentrations (0 to 100 µM) and in the absence or presence of 5 µM pinocembrin for 10 min. The kinetic parameters of 6-CF transport by hOAT1 and hOAT3 in the presence of pinocembrin were determined using nonlinear regression analysis to fit the Michaelis–Menten kinetic equation: V=Vmax[S]/Km+[S] where V is the rate of 6-CF transport, Vmax is the maximum rate of 6-CF transport, Km is the 6-CF concentration that results in half the maximum transport (Michaelis–Menten constant), and [S] is the concentration of 6-CF in the transport reaction.

Test [3] deals with T3, CYP2B6 (Homo sapiens, UniProt P20813).
T3 construct: purchased Life Technologies
T3 sequence (P20813 whole entry): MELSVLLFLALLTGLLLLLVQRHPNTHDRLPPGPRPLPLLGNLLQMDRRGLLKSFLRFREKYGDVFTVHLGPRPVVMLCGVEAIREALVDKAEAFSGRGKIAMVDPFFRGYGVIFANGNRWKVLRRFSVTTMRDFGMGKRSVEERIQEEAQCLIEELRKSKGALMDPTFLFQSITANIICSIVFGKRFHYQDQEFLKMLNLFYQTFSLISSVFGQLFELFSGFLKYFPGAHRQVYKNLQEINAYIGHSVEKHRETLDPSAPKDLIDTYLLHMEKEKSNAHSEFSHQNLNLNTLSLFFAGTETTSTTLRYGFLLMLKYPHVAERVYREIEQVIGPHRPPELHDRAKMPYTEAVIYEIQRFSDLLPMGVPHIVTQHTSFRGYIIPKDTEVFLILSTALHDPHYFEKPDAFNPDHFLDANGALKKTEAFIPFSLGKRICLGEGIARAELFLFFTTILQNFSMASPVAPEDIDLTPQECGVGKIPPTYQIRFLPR
The test is described as follows: Cell-free CYP450 inhibition assay, CYP2B6. It is filed as biochemical. The note with it: cell-free fluorescent probe assay, BACULOSOMES
On the procedure: To determine whether pinocembrin influences the catalytic activity of CYP450 enzymes, fluorescent probe reaction assays were performed using varying concentrations of pinocembrin. […] In addition, molecular docking was conducted to better understand the binding mode and interactions between pinocembrin and human CYP2C19.
The CYP450 inhibitory activity of pinocembrin was determined using a P450 screening kit (Life Technologies; Carlsbad, CA, USA). Varied concentrations of pinocembrin were prepared in methanol. […] The fluorescence intensities were monitored every minute for 60 min at room temperature. The percentage of inhibition was calculated according to the following equation: % Inhibition=(1−X−B/A−B)×100% where X is the fluorescence intensity observed in the presence of pinocembrin.

As for `O=C1C[C@@H](c2ccccc2)Oc2cc(O)cc(O)c21` [pinocembrin], the “hMATE1-mediated uptake of 3H-MPP+” value in test [1] was “did not alter”. Also, in test [2] (5 μM pinocembrin, 6-CF up to 100 μM, hOAT1-MDCK cells), the “Vmax of hOAT1-mediated 6-CF uptake, With Pinocembrin” value is listed as 6.03 ± 1.02 nmol/min/cm^2. The IC50 worked out at 1470 ± 870 nM in test [2] (hOAT1-MDCK cells, 6-CF 10 µM, mean ± S.D., three experiments) and 44000 nM in test [3]. For the same compound, the Ki in test [2] (hOAT1-MDCK cells, estimated with the Cheng–Prusoff equation) was 810 ± 120 nM. Moreover, the “inhibitory mechanism on hOAT1 transport function” value in test [2] (kinetic study, 5 μM pinocembrin: Km increased, Vmax unchanged) is reported as “competitively”.
